Patent US12303501B2, “Lipophilic active oral film formulation and method of making the same” (INTELGENX CORP., priority 2018, dated 2025)

Test: viscosity of aqueous glycerol solutions (DV1 Viscometer)
Format: physicochemical
Settings: room temperature (23.5° C.), SC4-21 spindle
Text: Specifically, larger differences in the viscosity between the oil and the aqueous phases will hinder the emulsion formation and promote phase separation. The formulations disclosed herein thus preferably include viscosity modifying agents to increase the viscosity of the aqueous phase and improve the emulsion stability by diminishing the rise of the oil droplets to the surface. Table 3 contain examples of increasing the viscosity of an aqueous solution using glycerol/glycerine. Viscosity modifiers are added to the aqueous phase to increase the viscosity in and attempt to mitigate the difference in viscosity between the oil phase and the aqueous phases and thus promote emulsion stability.

Viscosity: 905.0 cP
SMILES: OCC(O)CO [100%, glycerol]
